Source: patent publication US11771685B2, “Compounds for the treatment of neurological or mitochondrial diseases” (MUSC FOUNDATION FOR RESEARCH DEVELOPMENT, priority 2018, dated 2023)
Read-outs that look alike come from different tables or passages of the source.

Assays:
[1] = tested on: PTZ-induced seizure activity in zebrafish larvae; test: Zebrafish PTZ-induced seizure model; assay type: in vivo; conditions: for anti-seizure activity / minimal effective concentration: 7 dpf larvae; for anti-seizure activity: PTZ; for minimal effective concentration: 1 hr pre-treatment, 10 mM PTZ, read-out: Anti-seizure activity: lowest tested dose with significant difference vs PTZ-only group; for inhibition in vivo at 5 µM / inhibition in vivo at 10 µM: read-out: reduction of PTZ-induced locomotor activity
Method: The zebrafish PTZ-induced seizure model was used to determine the most promising compounds' in vivo efficacy. Zebrafish larvae (7 dpf) were treated with the compound for 1 hr prior to inducing seizures with PTZ. As established by previous larval zebrafish anti-seizure studies (Rahn et al., 2014; Hansen et al., 2004; Baraban et al., 2005), total distance traveled by each fish after seizure induction was measured and used as a proxy for seizure activity. Following collection of locomotor data, observation of a startle response and visual inspection for abnormal morphology confirmed that alterations in swim activity were not caused by compound toxicity.
We induced seizures in 7 dpf zebrafish larvae by the addition of […] PTZ as originally developed by Baraban et al., 2005. In a 48-well plate, one 7-dpf zebrafish was added per well. Larvae were dosed with each compound at a sub-lethal dose 1 hr prior to PTZ treatment. Two control rows were included with each experiment—tank water only control and PTZ only. Seizures were induced by adding PTZ to wells to yield a final concentration of 10 mM. After 5 min, the plate was transferred to the Daniovision instrument (Noldus Information Technology) and the chamber light was turned on. After 2 min, MediaRecorder (Noldus) was used to record video for 15 min. A small number of videos were acquired at 25 frames per second, but the majority of data were acquired at 60 frames per second. […] Ethovision XT software (Noldus) was used to track the fish movement from the video images in order to calculate the total distance traveled over 15 min. All experimental comparisons were made between animals from the same clutch.
(§1) Statistical analyses were performed with GraphPad Prism 6 software. For the in vitro HT22 oxytosis assay, dose-response data were fit using GraphPad Prism's log(inhibitor) vs normalized response-variable slope parameters to determine EC50 values and 95% confidence intervals. For the zebrafish locomotive anti-seizure activity data, multiple comparisons were made using a one-way analysis of variance (ANOVA) with a Kruskal-Wallis Test, followed by the Dunn's Method to determine significant differences between all pairs or between control and experimental groups using the Dunn Method for Joint Ranking. Differences were considered statistically significant when p<0.05. Data from zebrafish experiments are represented as scatter dot plots of individual measurements, with means±standard deviation indicated by bars.

[2] = tested on: HT22 cells; test: HT22 oxytosis (glutamate-induced cell death) neuroprotection assay; assay type: cell-based, mouse; conditions: 10 mM Glu
Method: The HT22 murine hippocampal cell system was chosen as an initial phenotypic screen for neuroprotective efficacy (Andreux et al., 2013; Andreux et al., 2014; Ohlow et al., 2017; Schubert and Maher, 2012). HT22 cells exposed to high extracellular Glu ([…]) undergo oxytosis, a non-apoptotic programmed cell death involving glutathione (GSH) depletion followed by ROS accumulation, oxidative damage, and a cytotoxic signaling cascade (Tan et al., 2001). Glu blocks the −xC cystine antiporter, causing (Tan et al., 2001) cells to accumulate severe oxidative stress, mitochondrial depolarization, disrupted mitochondrial morphology, and Ca^2+ influx (Tan et al., 2001; Yang et al., 2011; Cheng et al., 2013—cellular events that may occur in neurological diseases, including epilepsy. Thus, the immortalized HT22 cell line is a well-established model of neuronal oxidative stress (Sagara and Schubert, 1998; Matsumoto et al., 1996; Albrecht et al., 2010; Ha and Park, 2006; van Leyen et al., 2005; Tobaben et al., 2011), and a verified model of neurodegeneration to screen for potential neuroprotective drugs (Albrecht et al., 2010; van Leyen et al., 2008; Lewerenz et al., 2009; Lewerenz et al., 2003).
Consistent with that work, most of the 2-amino compounds achieved protection of HT22 cells against glutamate-induced oxytosis in the nM to μM range. […] Neuroprotection based on relative cell viability compared to +Glu and −Glu control cells was measured.
The HT22 neuronal cell line is a subclone of HT4, derived from the mouse hippocampus (Morimoto and Koshland, 1990). […] The HT22 cells used in this study were kindly provided by Dr. David Schubert (The Salk Institute for Biological Studies, La Jolla, CA, USA). The cells were grown in Dulbecco's Modified Eagle's Medium (DMEM/high glucose) supplemented with 10% fetal bovine serum (Hyclone) and 5 mL of antibiotic-antimycotic (Amphotericin B, Penicillin, and Streptomycin; Invitrogen) at 37° C. in 5% CO2.
HT-22 cells were seeded onto 96-well plates at 2.5×10^3 cells per well in 75 μL of medium and maintained at 37° C. in 5% CO2 overnight prior to the initiation of experimental treatments. For glutamate toxicity testing, cells were subsequently treated with 25 μL of medium containing glutamate (monosodium glutamate, Sigma, 1 M stock concentration in media, to achieve a final concentration of 10 mM) plus compound (stock in DMSO) and maintained at 37° C. in 5% CO2 for 24 hr. CellTiter-Blue® (resazurin cell viability assay reagent) was then added to each well at a final concentration of 0.125 mg/mL. The mixture was allowed to incubate for 2-4 hr until sufficient color change occurred. Cell viability was measured as a function of resorufin fluorescence intensity using a Tecan M200 Pro spectrophotometer, 560 nm/590 nm (excitation/emission). Cell viability was calculated as a percentage compared with untreated controls. EC50s were determined using GraphPad Prism's “log(inhibitor) vs. normalized response-Variable slope” function. Morphology of HT22 cells following treatments was determined by phase-contrast microscopy.
as §1

[3] = tested on: Zebrafish larvae; test: In vivo toxicology in zebrafish larvae; conditions: 7 dpf larvae, 5-20 μM, observed 1, 5 and 24 hr
Method: Zebrafish larvae, 7 days post-fertilization (dpf), were exposed to compounds at 20, 15, 10, and 5 μM, six larvae per compound. Animals were observed 1, 5, and 24 hr after dosing for overt toxicity (altered survival, morbidity, morphological deformity). Heart rate, behavior, and startle response were monitored at each time point.
Zebrafish (AB strain) were obtained from the Zebrafish International Resource Center (supported by P40 RR012546 from NIH—NCRR). Zebrafish were maintained and crossed according to standard methods (Westerfield, 2000). Fertilized eggs were collected and placed in E3 embryo medium and positioned in an incubator set at 28.5° C. with a 14/10-hr light/dark cycle (Kimmel et al., 1995). To determine the lethal dose of each compound, 96-well plates containing one zebrafish (7 days post-fertilization, dpf) per well in 100 μL of tank water were used. 100 μL of each compound (0.5-15 μM) was added to each well for 12 animals (one row) for a final volume of 200 μL. One row of larvae was used as dimethyl sulfoxide (DMSO)-only controls. […] All zebrafish studies were approved by the Medical University of South Carolina Institutional Animal Care and Use Committee (#180278) and performed in accordance with the guidelines.
Using a 96-well plate, 7 dpf zebrafish were placed one per well with 100 μL of tank water. 100 μL of each compound was then added to each well for 12 animals (one row) for a final volume of 200 μL. One row of zebrafish larvae was used as DMSO only controls.

[4] = Mus musculus, HT-22, 24 h, HT22 cells, 24 hr, 95% CI in parentheses
[5] = Mus musculus, HT-22, HT22 cells, 24 hr, 95% CI in parentheses
[6] = HT22 cells, 24 hr, 95% CI in parentheses
[7] = Mus musculus, HT-22, HT22 cells

Compound | minimal effective concentration ([1]; Danio rerio) [µM] | EC50 [2, 4] [nM] | further results
CC(C)=CCC/C(C)=C/CNC1=C(Br)C(=O)c2ccccc2C1=O [Compound 23, (E)-2-Bromo-3-((3,7-dimethylocta-2,6-dien-1-yl)amino)naphthalene-1,4-dione] | > 10 | 133 | anti-seizure activity [1]: ineffective
O=C1C=C(NCC#Cc2ccccc2)C(=O)c2ccccc21 [Compound 8, 2-((3-Phenylprop-2-yn-1-yl)amino)naphthalene-1,4-dione] | – | – | EC50 [2, 5]: 162 nM; overt toxicity observation [3]: not lethal at any concentration
C#CCC(NC1=CC(=O)c2ccccc2C1=O)c1ccccc1 (racemic) [Compound 21, Rac-2-((1-phenylbut-3-yn-1-yl)amino)naphthalene-1,4-dione] | 5 | 6150 | –
O=C1C=C(NCC#Cc2cccc(C(F)(F)F)c2)C(=O)c2ccccc21 [Compound 13, 2-((3-(3-(Trifluoromethyl)phenyl)prop-2-yn-1-yl)amino)naphthalene-1,4-dione] | > 10 | ~500 | minimal effective concentration [1]: >10 µM; EC50 [2, 6]: 584 nM
CC(C)=CCC/C(C)=C/CNC1=CC(=O)c2ccccc2C1=O [Compound 22, (E)-2-((3,7-Dimethylocta-2,6-dien-1-yl)amino)naphthalene-1,4-dione] | 20 | 9220 | anti-seizure activity [1]: activity at 20 and 40 μM that resulted from sedation; EC50 ([2]; HT22 cells): ~9000 nM; EC50 [2, 7]: ~9200 nM
CC#CCOC1=CC(=O)c2ccccc2C1=O [Compound 28, 2-(But-2-yn-1-yloxy)naphthalene-1,4-dione] | – | 168 | –
CCCCC#CCOC1=CC(=O)c2ccccc2C1=O [Compound 31, 2-(Hept-2-yn-1-yloxy)naphthalene-1,4-dione] | 10 | 76.1 | anti-seizure activity [1]: reduced swim distance to control levels; inhibition in vivo at 5 µM ([1]; Danio rerio): 48%; toxic effects during PTZ-induced seizure experiments ([1]; lack of survival or behavioral impairments): higher-than-normal occurrences of toxic effects
O=C1C=C(NCC#Cc2cccc(F)c2)C(=O)c2ccccc21 [Compound 9, 2-((3-(3-Fluorophenyl)prop-2-yn-1-yl)amino)naphthalene-1,4-dione] | – | 216 | –
O=C1C=C(NCC#Cc2ccc(C(F)(F)F)cc2)C(=O)c2ccccc21 [Compound 12, 2-((3-(4-(Trifluoromethyl)phenyl)prop-2-yn-1-yl)amino)naphthalene-1,4-dione] | > 10 | ~500 | minimal effective concentration [1]: >10 µM; EC50 [2, 6]: 566 nM
CCCC#CCOC1=CC(=O)c2ccccc2C1=O [Compound 30, 2-(Hex-2-yn-1-yloxy)naphthalene-1,4-dione] | 5 | 249 | inhibition in vivo at 5 µM ([1]; Danio rerio): 53%; inhibition in vivo at 10 µM ([1]; Danio rerio): 68%
O=C1C=C(OCc2ccccc2)C(=O)c2ccccc21 [Compound 27, 2-(Benzyloxy)naphthalene-1,4-dione] | – | 168 | –
C#CCC(C)NC1=CC(=O)c2ccccc2C1=O (racemic) [Compound 20, Rac-2-(pent-4-yn-2-ylamino)naphthalene-1,4-dione] | > 10 | 3690 | EC50 [2, 7]: > 2000 nM
CC(C)=CCC/C(C)=C/CNC1=C(C)C(=O)c2ccccc2C1=O [Compound 24, (E)-2-((3,7-Dimethylocta-2,6-dien-1-yl)amino)-3-methylnaphthalene-1,4-dione] | > 10 | 2740 | anti-seizure activity [1]: ineffective; EC50 [2, 7]: ~2700 nM
O=C1C=C(NCC#Cc2cccnc2)C(=O)c2ccccc21 [Compound 11, 2-((3-(Pyridin-3-yl)prop-2-yn-1-yl)amino)naphthalene-1,4-dione] | – | 290 | –
COc1cccc(C#CCNC2=CC(=O)c3ccccc3C2=O)c1 [Compound 10, 2-((3-(3-Methoxyphenyl)prop-2-yn-1-yl)amino)naphthalene-1,4-dione] | > 20 | 215 | –
C=CCC#CCNC1=CC(=O)c2ccccc2C1=O [Compound 6, 2-(Hex-5-en-2-yn-1-ylamino)naphthalene-1,4-dione] | 10 | 2640 | inhibition in vivo at 5 µM ([1]; Danio rerio): ~65%; inhibition in vivo at 10 µM ([1]; Danio rerio): 85%
CCC#CCOC1=CC(=O)c2ccccc2C1=O [Compound 29, 2-(Pent-2-yn-1-yloxy)naphthalene-1,4-dione] | ≤ 5 | ~300 | inhibition in vivo at 5 µM ([1]; Danio rerio): 60%; inhibition in vivo at 10 µM ([1]; Danio rerio): 53%; EC50 [2, 6]: 307 nM
CCCCOC1=CC(=O)c2ccccc2C1=O [Compound 26, 2-Butoxynaphthalene-1,4-dione] | – | – | EC50 [2, 5]: 78 nM
CC#CCC(CO)NC1=CC(=O)c2ccccc2C1=O (racemic) [Compound 18, Rac-2-((1-hydroxyhex-4-yn-2-yl)amino)naphthalene-1,4-dione] | > 10 | 2170 | EC50 [2, 7]: > 2000 nM
